Data taken from patent US11542255B2, “Sulfonylureas and sulfonylthioureas as NLRP3 inhibitors” (Inflazome Limited, priority 2017, dated 2023).
Where a name gives a salt, the structure may show the parent alone.

Tests used:
[1] = molecular target: T1, NLRP3 (Homo sapiens, UniProt Q96P20); experiment: THP-1 cells pyroptosis assay (LPS + nigericin, resazurin readout); assay type: cell-based; parameters: Seed THP-1 cells (25,000 cells/well) containing 1.0 μg/ml LPS in 40 μl of RPMI medium; host or cells: THP-1 cells; settings: NLRP3 inhibitory activity, 1.0 μg/ml LPS, 5 μM nigericin
T1 sequence (Q96P20 whole entry): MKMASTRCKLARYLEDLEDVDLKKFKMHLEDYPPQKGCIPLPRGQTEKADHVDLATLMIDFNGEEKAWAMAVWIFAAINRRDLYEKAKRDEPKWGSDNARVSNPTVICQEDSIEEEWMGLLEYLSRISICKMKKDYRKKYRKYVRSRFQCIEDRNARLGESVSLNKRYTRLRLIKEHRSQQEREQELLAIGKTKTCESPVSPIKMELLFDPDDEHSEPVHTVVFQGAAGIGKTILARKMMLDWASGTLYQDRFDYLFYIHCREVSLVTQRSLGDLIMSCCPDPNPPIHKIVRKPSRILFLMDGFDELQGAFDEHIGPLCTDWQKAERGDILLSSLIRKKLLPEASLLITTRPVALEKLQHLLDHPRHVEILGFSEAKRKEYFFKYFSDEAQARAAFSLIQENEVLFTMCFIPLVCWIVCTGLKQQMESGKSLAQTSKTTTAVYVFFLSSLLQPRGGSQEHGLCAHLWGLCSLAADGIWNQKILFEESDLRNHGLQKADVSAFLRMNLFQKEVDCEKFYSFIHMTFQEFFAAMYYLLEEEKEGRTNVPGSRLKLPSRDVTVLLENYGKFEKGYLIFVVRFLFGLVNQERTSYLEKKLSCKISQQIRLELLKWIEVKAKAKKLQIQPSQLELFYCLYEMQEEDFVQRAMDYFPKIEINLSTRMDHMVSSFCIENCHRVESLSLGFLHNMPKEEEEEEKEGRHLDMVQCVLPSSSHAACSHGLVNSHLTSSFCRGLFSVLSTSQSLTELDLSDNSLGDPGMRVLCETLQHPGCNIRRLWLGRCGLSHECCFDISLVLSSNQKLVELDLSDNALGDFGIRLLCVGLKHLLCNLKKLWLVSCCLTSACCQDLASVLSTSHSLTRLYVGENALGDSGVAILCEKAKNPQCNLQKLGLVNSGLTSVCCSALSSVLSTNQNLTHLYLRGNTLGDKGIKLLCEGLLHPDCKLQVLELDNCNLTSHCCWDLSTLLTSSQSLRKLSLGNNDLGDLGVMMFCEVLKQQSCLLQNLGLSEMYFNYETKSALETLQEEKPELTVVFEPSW
Method: THP-1 cells (ATCC #TIB-202) were grown in RPMI containing L-glutamine (Gibco #11835) supplemented with 1 mM sodium pyruvate (Sigma #S8636) and penicillin (100 units/ml)/streptomycin (0.1 mg/ml) (Sigma #P4333) in 10% Fetal Bovine Serum (FBS) (Sigma #F0804). The cells were routinely passaged and grown to confluency (˜10^6 cells/ml). On the day of the experiment, THP-1 cells were harvested and resuspended into RPMI medium (without FBS). The cells were then counted and viability (>90%) checked by Trypan blue (Sigma #T8154). Appropriate dilutions were made to give a concentration of 625,000 cells/ml. To this diluted cell solution was added LPS (Sigma #L4524) to give a […] Final Assay Concentration (FAC). 40 μl of the final preparation was aliquoted into each well of a 96-well plate. The plate thus prepared was used for compound screening.
The following method step-by-step assay was followed for compound screening. • 1. Seed THP-1 cells (25,000 cells/well) containing 1.0 μg/ml LPS in 40 μl of RPMI medium (without FBS) in 96-well, black walled, clear bottom cell culture plates coated with poly-D-lysine (VWR #734-0317) • 2. Add 5 μl compound (8 points half-log dilution, with 10 μM top dose) or vehicle (DMSO 0.1% FAC) to the appropriate wells • 3. Incubate for 3 hrs at 37° C. in 5% CO2 • 4. Add 5 μl nigericin (Sigma #N7143) (FAC 5 μM) to all wells • 5. Incubate for 1 hr at 37° C. and 5% CO2 • 6. At the end of the incubation period, spin plates at 300×g for 3 mins and remove supernatant • 7. Then add 50 μl of resazurin (Sigma #R7017) (FAC 100 μM resazurin in RPMI medium without FBS) and incubate plates for a further 1-2 hrs at 37° C. and 5% CO2 • 8. Plates were read in an Envision reader at Ex 560 nm and Em 590 nm • 9. IC50 data is fitted to a non-linear regression equation (log inhibitor vs response-variable slope 4-parameters)

[2] = molecular target: T1, NLRP3; experiment: Human whole blood IL1β release assay (LPS + nigericin, AlphaLisa IL-1β); assay type: cell-based; parameters: Human whole blood in Li-heparin tubes was obtained from healthy donors from a volunteer donor panel; from tissue; host or cells: human whole blood from healthy donors; settings: NLRP3 inhibitory activity, 1 μg/ml LPS, 10 μM nigericin, IL-1β release, read-out: HWB IC50
Method: For systemic delivery, the ability to inhibit NLRP3 when the compounds are present within the bloodstream is of great importance. For this reason, the NLRP3 inhibitory activity of a number of compounds in human whole blood was investigated in accordance with the following protocol.
Human whole blood in Li-heparin tubes was obtained from healthy donors from a volunteer donor panel. • 1. Plate out 80 μl of whole blood containing 1 μg/ml of LPS in 96-well, clear bottom cell culture plate (Corning #3585) • 2. Add 10 μl compound (8 points half-log dilution with 10 μM top dose) or vehicle (DMSO 0.1% FAC) to the appropriate wells • 3. Incubate for 3 hrs at 37° C., 5% CO2 • 4. Add 10 μl Nigericin (Sigma #N7143) (10 μM FAC) to all wells • 5. Incubate for 1 hr at 37° C., 5% CO2 • 6. At the end of the incubation period, spin plates at 300×g for 5 mins to pellet cells and remove 20 μl of supernatant and add to 96-well v-bottom plates for IL-1β analysis (note: these plates containing the supernatants can be stored at −80° C. to be analysed at a later date) • 7. IL-1β was measured according to the manufacturer protocol (Perkin Elmer-AlphaLisa IL-1β Kit AL220F-5000) • 8. IC50 data is fitted to a non-linear regression equation (log inhibitor vs response-variable slope 4-parameters)

| Compound | IC50 [1] [nM] | IC50 [2] [nM] |
| --- | --- | --- |
| CC(C)(C)n1nc(S(=O)(=O)NC(=O)Nc2c3c(cc4c2CCC4)CCC3)cc1CN1CCC1 [Example 38, 5-(Azetidin-1-ylmethyl)-1-(tert-butyl)-N-((1,2,3,5,6,7-hexahydro-s-indacen-4-yl)carbamoyl)-1H-pyrazole-3-sulfonamide] | 40 to 160 | 1600 to 3200 |
| CC(C)c1cc(F)cc(C(C)C)c1NC(=O)NS(=O)(=O)c1cc(CN2CC(F)C2)n(C)n1 [Example 79, N-((4-Fluoro-2,6-diisopropylphenyl)carbamoyl)-5-((3-fluoroazetidin-1-yl)methyl)-1-methyl-1H-pyrazole-3-sulfonamide] | 640 to 2560 | 800 to 1600 |
| CC(C)c1cc(F)cc(C(C)C)c1NC(=O)NS(=O)(=O)c1cc(CN(C)CCO)n(C)n1 [Example 116, N-((4-Fluoro-2,6-diisopropylphenyl)carbamoyl)-5-(((2-hydroxyethyl)(methyl)amino)methyl)-1-methyl-1H-pyrazole-3-sulfonamide] | 160 to 640 | < 400 |
| CN(C)C1CCCn2nc(S(=O)(=O)NC(=O)Nc3c4c(cc5c3CCC5)CCC4)cc21 (centres unmarked) [Example 60, 4-(Dimethylamino)-N-((1,2,3,5,6,7-hexahydro-s-indacen-4-yl)carbamoyl)-4,5,6,7-tetrahydropyrazolo[1,5-a]pyridine-2-sulfonamide] | < 40 | 400 to 800 |
| CNCc1cc(S(=O)(=O)NC(=O)Nc2c3c(cc4c2CCC4)CCC3)nn1C1CC1 [Example 183] | 40 to 160 | 400 to 800 |
| CCC(c1cc(S(=O)(=O)NC(=O)Nc2c3c(cc4c2CCC4)CCC3)nn1C)N(C)C (centres unmarked) [Example 74, 5-(1-(Dimethylamino)propyl)-N-((1,2,3,5,6,7-hexahydro-s-indacen-4-yl)carbamoyl)-1-methyl-1H-pyrazole-3-sulfonamide] | < 40 | < 400 |
| CC(C)c1cc(F)cc(-c2cncnc2)c1NC(=O)NS(=O)(=O)c1cc(C(=O)N(C)C)n(C)n1 [Example 135, 3-(N-((4-Fluoro-2-isopropyl-6-(pyrimidin-5-yl)phenyl)carbamoyl)sulfamoyl)-N,N,1-trimethyl-1H-pyrazole-5-carboxamide, sodium Salt] | 160 to 640 | < 400 |
| COc1cc(-c2ccc3c(c2NC(=O)NS(=O)(=O)c2cc(CN(C)C)n(C(C)C)n2)CCC3)ccn1 [Example 181] | < 40 | < 400 |
| CN(C)C(C)(C)c1cc(S(=O)(=O)NC(=O)Nc2c3c(cc4c2CCC4)CCC3)nn1C [Example 34, 5-(2-(Dimethylamino)propan-2-yl)-N-((1,2,3,5,6,7-hexahydro-s-indacen-4-yl)carbamoyl)-1-methyl-1H-pyrazole-3-sulfonamide] | 40 to 160 | 400 to 800 |
| CCC(c1cc(S(=O)(=O)NC(=O)Nc2c(C(C)C)cc(F)cc2C(C)C)nn1C(C)C)N(C)C (centres unmarked) [Example 62, 5-(1-(Dimethylamino)propyl)-N-((4-fluoro-2,6-diisopropylphenyl)carbamoyl)-1-isopropyl-1H-pyrazole-3-sulfonamide] | 160 to 640 | 400 to 800 |
| CCN(CC)Cc1cc(S(=O)(=O)NC(=O)Nc2c3c(cc4c2CCC4)CCC3)nn1C [Example 82, 5-((Diethylamino)methyl)-N-((1,2,3,5,6,7-hexahydro-s-indacen-4-yl)carbamoyl)-1-methyl-1H-pyrazole-3-sulfonamide, Sodium Salt] | 40 to 160 | 800 to 1600 |
| CC(C)n1nc(S(=O)(=O)NC(=O)Nc2c3c(cc4c2CCC4)CCC3)cc1C1(N(C)C)CC1 [Example 32, 5-(1-(Dimethylamino)cyclopropyl)-N-((1,2,3,5,6,7-hexahydro-s-indacen-4-yl)carbamoyl)-1-isopropyl-1H-pyrazole-3-sulfonamide] | 40 to 160 | 400 to 800 |
| CC(C)c1cc(Cl)cc(C(C)C)c1NC(=O)NS(=O)(=O)c1cc(CN(C)C)n(C(C)C)n1 [Example 55, N-((4-Chloro-2,6-diisopropylphenyl)carbamoyl)-5-((dimethylamino)methyl)-1-isopropyl-1H-pyrazole-3-sulfonamide] | 40 to 160 | 1600 to 3200 |
| CC(C)c1cc(F)cc(-c2cccnc2)c1NC(=O)NS(=O)(=O)c1cc(CN(C)C)n(C)n1 [Example 41, 5-((Dimethylamino)methyl)-N-((4-fluoro-2-isopropyl-6-(pyridin-3-yl)phenyl)carbamoyl)-1-methyl-1H-pyrazole-3-sulfonamide] | 40 to 160 | < 400 |
| Cn1nc(S(=O)(=O)NC(=O)Nc2c3c(cc4c2CCC4)CCC3)cc1CN1CC(F)C1 [Example 80, 5-((3-Fluoroazetidin-1-yl)methyl)-N-((1,2,3,5,6,7-hexahydro-s-indacen-4-yl)carbamoyl)-1-methyl-1H-pyrazole-3-sulfonamide] | 160 to 640 | 1600 to 3200 |
| CCC(c1cc(S(=O)(=O)NC(=O)Nc2c3c(cc4c2CCC4)CCC3)nn1C)N(C)C (single isomer, unassigned; enantiomer 1) [Example 71, 5-(1-(Dimethylamino)propyl)-N-((1,2,3,5,6,7-hexahydro-s-indacen-4-yl)carbamoyl)-1-methyl-1H-pyrazole-3-sulfonamide, Enantiomer 1] | < 40 | < 400 |
| CC(C)n1nc(S(=O)(=O)NC(=O)Nc2c3c(cc4c2CCC4)CCC3)cc1CCN(C)C [Example 33, 5-(2-(Dimethylamino)ethyl)-N-((1,2,3,5,6,7-hexahydro-s-indacen-4-yl)carbamoyl)-1-isopropyl-1H-pyrazole-3-sulfonamide, Sodium Salt] | 160 to 640 | 400 to 800 |
| CC(C)n1nc(S(=O)(=O)NC(=O)Nc2c3c(cc4c2CCC4)CCC3)cc1CN(C)CCF [Example 57, 5-(((2-Fluoroethyl)(methyl)amino)methyl)-N-((1,2,3,5,6,7-hexahydro-s-indacen-4-yl)carbamoyl)-1-isopropyl-1H-pyrazole-3-sulfonamide, Sodium Salt] | < 40 | 1600 to 3200 |
| CN(C)Cc1cc(S(=O)(=O)NC(=O)Nc2c3c(cc4c2CCC4)CCC3)nn1CC(C)(C)C [Example 31, 5-((Dimethylamino)methyl)-N-((1,2,3,5,6,7-hexahydro-s-indacen-4-yl)carbamoyl)-1-neopentyl-1H-pyrazole-3-sulfonamide] | 40 to 160 | 400 to 800 |
| CC(C)c1cc(F)cc(-c2ccccc2)c1NC(=O)NS(=O)(=O)c1cc(CN(C)C)n(C)n1 [Example 66, 5-((Dimethylamino)methyl)-N-((5-fluoro-3-isopropyl-[1,1′-biphenyl]-2-yl)carbamoyl)-1-methyl-1H-pyrazole-3-sulfonamide] | 160 to 640 | 400 to 800 |
| CC(C)c1cc(F)cc(C(C)C)c1NC(=O)NS(=O)(=O)c1cc(CN(C)C(C)C)n(C)n1 [Example 90, N-((4-Fluoro-2,6-diisopropylphenyl)carbamoyl)-5-((isopropyl(methyl)amino)methyl)-1-methyl-1H-pyrazole-3-sulfonamide, sodium Salt] | 160 to 640 | < 400 |
| CN(C)C1(c2cc(S(=O)(=O)NC(=O)Nc3c4c(cc5c3CCC5)CCC4)nn2C)COC1 [Example 115, 5-(3-(Dimethylamino)oxetan-3-yl)-N-((1,2,3,5,6,7-hexahydro-s-indacen-4-yl)carbamoyl)-1-methyl-1H-pyrazole-3-sulfonamide] | 160 to 640 | 800 to 1600 |
